From paper PMC4588179, “Antifungal Activity of 14-Helical β-Peptides against Planktonic Cells and Biofilms of Candida Species” (Pharmaceuticals, 2015)

What was measured:
[1] = RP-HPLC retention time as measure of β-peptide hydrophobicity; format: physicochemical; conditions: chromatographic, analytical RP-HPLC, C18 (Waters X-bridge, 4.6 mm × 250 mm), gradient 20%–80% CH3CN in water with 0.1% TFA over 5–35 min, 1 mL/minute, 0.5 to 1 mg/mL, 50 µL injected; mean ± standard deviation of triplicate measurements
Excerpt: β-peptides were produced by microwave-assisted Fmoc synthesis at 20−40 μmol scales and purified by RP-HPLC using a C18 column. MALDI mass spectrometry was used to validate the mass of each peptide as described previously. Retention times determined by C18 RP-HPLC were used as a measure of the relative hydrophobicity of the β-peptides (Table 1). This approach has been used previously by our group and others to assess the relative hydrophobicity of different peptide structures. Preliminary antifungal activity and mammalian toxicity evaluation were reported previously for β-peptides 1–16 as planktonic MIC against C. albicans and percent hemolysis at the MIC, respectively.
Hydrophobicity of 14-helical β-peptides was characterized by measuring retention times with an analytical RP-HPLC using a C18 column (Waters, X-bridge, column dimensions 4.6 mm × 250 mm, Milford, MA, USA). The β-peptide solutions (0.5 to 1 mg/mL, 50 µL) were injected into the HPLC at a flow rate of 1 mL/minute. Retention time was characterized in triplicate with a gradient of 20%–80% CH3CN in water containing 0.1% TFA over 5–35 min.

[2] = test system: C. albicans SC5314 biofilm formation; experiment: Biofilm formation in the presence of β-peptides, XTT; format: cell-based, Candida albicans; conditions: 10^6 cells/mL incubated with 2-fold dilutions of β-peptide, 37 °C, 48 h, washed, 10% or less metabolic activity vs untreated control
Description: C. albicans, C. glabrata, C. tropicalis, and C. parapsilosis biofilm formation in the presence of β-peptide was evaluated using a procedure used previously. Briefly, 100 μL of overnight cultures of C. albicans SC5314, C. glabrata, C. parapsilosis, and C. tropicalis adjusted to 2 × 10^6 cells/mL was added to 100 μL of two-fold serially diluted β-peptide in a 96-well plates. Peptide-free controls and cell and peptide-free controls were included for each peptide assayed and the plates were incubated at 37 °C for 48 h. After 48 h, biofilms were washed with PBS to remove non-adherent cells and the metabolic activity of biofilms grown in the presence of β-peptide was determined using XTT.
For evaluation of metabolic activities of planktonic cells and biofilms in susceptibility testing in 96-well plates, 100 μL of XTT solution was added to every well and plates were incubated at 37 °C in the dark for 1.5 h for C. albicans and 2.5 h for C. glabrata, C. parapsilosis and C. tropicalis. At the end of the incubation, 75 μL of supernatant from wells were transferred to a new plate and absorbance at 490 nm was measured. The percent metabolic activity was calculated as: Metabolic Activity (%)= (A490− A490background)/A490cell control− A490background ×100 where A490 , A490cell control , and A490background are the average absorbance values of wells containing a specific concentration of β-peptide, cell control wells without β-peptide, and media only wells, respectively. Experiments were performed in triplicate and repeated on at least two different days.

[3] = test system: human red blood cells (hRBCs); experiment: Hemolysis of human red blood cells; format: cell-based; conditions: red cells of human
Description: Table S1. Hemolysis of β-peptide 1-16, concentration of β-peptid e needed for 50% lysis of human red blood cells (hRBCs)
Peptide # Peptide Concentration at 50% Hemolysis a (HC50, µg/mL) […]
a Hemolysis assays were perfor med as previously indicated in Lee, M.R. et al., ACS Chem. Biol. (2014). Briefly, equal volumes of 2-fold dilutions of β-peptides in tris-buffered saline (TBS) were incubated with hRBCs for an hour at 37 °C. Supernatants were transferred to a new plate and absorbance was measured at 405 nm.
% hemolysis was calculated relative to positive lysis control and the concentration of peptide needed for 50% hemolysis was recorded as HC50 for that peptide. Values reported are average measurements from three independent experiments of duplicates each and the error denoted is the standard deviation. Concentration dependent hemolysis graphs can be found in Lee, M.R. et al., ACS Chem. Biol. (2014).

Row | Compound | Hydrophobicity (HPLC Retention Time, min) [1] [min] | MIC, Biofilm Formation (C. albicans) [2] [µg/mL] | Peptide Concentration at 50% Hemolysis (HC50) [3] [µg/mL]
1 | C[C@@H](CC(=O)N[C@@H](CCCCN)CC(N)=O)NC(=O)[C@H]1CCCC[C@@H]1NC(=O)C[C@H](CCCCN)NC(=O)C[C@H](C)NC(=O)[C@H]1CCCC[C@@H]1NC(=O)C[C@H](CCCCN)NC(=O)C[C@H](C)NC(=O)[C@H]1CCCC[C@@H]1N [Peptide 1] | 19.3 ± 0.1 | – | –
2 | CC[C@@H](CC(=O)N[C@@H](CCCCN)CC(N)=O)NC(=O)[C@H]1CCCC[C@@H]1NC(=O)C[C@H](CCCCN)NC(=O)C[C@H](CC)NC(=O)[C@H]1CCCC[C@@H]1NC(=O)C[C@H](CCCCN)NC(=O)C[C@H](CC)NC(=O)[C@H]1CCCC[C@@H]1N [Peptide 2] | 22.5 ± 0.2 | 64 | –
3 | CC[C@@H](CC(=O)N[C@@H](CCCNC(=N)N)CC(N)=O)NC(=O)[C@H]1CCCC[C@@H]1NC(=O)C[C@H](CCCNC(=N)N)NC(=O)C[C@H](CC)NC(=O)[C@H]1CCCC[C@@H]1NC(=O)C[C@H](CCCNC(=N)N)NC(=O)C[C@H](CC)NC(=O)[C@H]1CCCC[C@@H]1N [Peptide 3] | 23.2 ± 0.1 | 32 | –
4 | CC(C)[C@@H](CC(=O)N[C@@H](CCCNC(=N)N)CC(N)=O)NC(=O)[C@H]1CCCC[C@@H]1NC(=O)C[C@H](CCCNC(=N)N)NC(=O)C[C@@H](NC(=O)[C@H]1CCCC[C@@H]1NC(=O)C[C@H](CCCNC(=N)N)NC(=O)C[C@@H](NC(=O)[C@H]1CCCC[C@@H]1N)C(C)C)C(C)C [Peptide 5] | 25.4 ± 0.1 | 8 | –
5 | NCCCC[C@@H](CC(N)=O)NC(=O)[C@H]1CCCC[C@@H]1NC(=O)[C@H]1CCCC[C@@H]1NC(=O)C[C@H](CCCCN)NC(=O)[C@H]1CCCC[C@@H]1NC(=O)[C@H]1CCCC[C@@H]1NC(=O)C[C@H](CCCCN)NC(=O)[C@H]1CCCC[C@@H]1NC(=O)[C@H]1CCCC[C@@H]1N [Peptide 6] | 23.1 ± 0.2 | – | –
6 | N=C(N)NCCC[C@@H](CC(N)=O)NC(=O)[C@H]1CCCC[C@@H]1NC(=O)[C@H]1CCCC[C@@H]1NC(=O)C[C@H](CCCNC(=N)N)NC(=O)[C@H]1CCCC[C@@H]1NC(=O)[C@H]1CCCC[C@@H]1NC(=O)C[C@H](CCCNC(=N)N)NC(=O)[C@H]1CCCC[C@@H]1NC(=O)[C@H]1CCCC[C@@H]1N [Peptide 7] | 23.8 ± 0.1 | 16 | –
7 | NCCCC[C@@H](CC(N)=O)NC(=O)C[C@H](Cc1ccccc1)NC(=O)[C@H]1CCCC[C@@H]1NC(=O)C[C@H](CCCCN)NC(=O)C[C@H](Cc1ccccc1)NC(=O)[C@H]1CCCC[C@@H]1NC(=O)C[C@H](CCCCN)NC(=O)C[C@H](Cc1ccccc1)NC(=O)[C@H]1CCCC[C@@H]1N [Peptide 8] | 26.2 ± 0.2 | 8 | –
8 | C[C@@H](CC(=O)N[C@@H](CCCCN)CC(=O)N[C@H]1CCCC[C@@H]1C(=O)N[C@@H](C)CC(=O)N[C@@H](CCCCN)CC(=O)N[C@H]1CCCC[C@@H]1C(=O)N[C@@H](C)CC(=O)N[C@@H](CCCCN)CC(N)=O)NC(=O)[C@H]1CCCC[C@@H]1NC(=O)C[C@@H](N)Cc1ccc(O)cc1 [Peptide 9] | 20.4 ± 0.2 | – | > 400
9 | CC[C@@H](CC(=O)N[C@@H](CCCCN)CC(=O)N[C@H]1CCCC[C@@H]1C(=O)N[C@@H](CC)CC(=O)N[C@@H](CCCCN)CC(=O)N[C@H]1CCCC[C@@H]1C(=O)N[C@@H](CC)CC(=O)N[C@@H](CCCCN)CC(N)=O)NC(=O)[C@H]1CCCC[C@@H]1NC(=O)C[C@@H](N)Cc1ccc(O)cc1 [Peptide 10] | 23.5 ± 0.1 | – | 149 ± 20
10 | CC[C@@H](CC(=O)N[C@@H](CCCNC(=N)N)CC(=O)N[C@H]1CCCC[C@@H]1C(=O)N[C@@H](CC)CC(=O)N[C@@H](CCCNC(=N)N)CC(=O)N[C@H]1CCCC[C@@H]1C(=O)N[C@@H](CC)CC(=O)N[C@@H](CCCNC(=N)N)CC(N)=O)NC(=O)[C@H]1CCCC[C@@H]1NC(=O)C[C@@H](N)Cc1ccc(O)cc1 [Peptide 11] | 24.2 ± 0.1 | – | 79 ± 8
11 | CC(C)[C@@H](CC(=O)N[C@@H](CCCCN)CC(=O)N[C@H]1CCCC[C@@H]1C(=O)N[C@H](CC(=O)N[C@@H](CCCCN)CC(=O)N[C@H]1CCCC[C@@H]1C(=O)N[C@H](CC(=O)N[C@@H](CCCCN)CC(N)=O)C(C)C)C(C)C)NC(=O)[C@H]1CCCC[C@@H]1NC(=O)C[C@@H](N)Cc1ccc(O)cc1 [Peptide 12] | 25.7 ± 0.1 | – | 12 ± 6
12 | CC(C)[C@@H](CC(=O)N[C@@H](CCCNC(=N)N)CC(=O)N[C@H]1CCCC[C@@H]1C(=O)N[C@H](CC(=O)N[C@@H](CCCNC(=N)N)CC(=O)N[C@H]1CCCC[C@@H]1C(=O)N[C@H](CC(=O)N[C@@H](CCCNC(=N)N)CC(N)=O)C(C)C)C(C)C)NC(=O)[C@H]1CCCC[C@@H]1NC(=O)C[C@@H](N)Cc1ccc(O)cc1 [Peptide 13] | 26.5 ± 0.2 | – | 11 ± 2
13 | NCCCC[C@@H](CC(N)=O)NC(=O)[C@H]1CCCC[C@@H]1NC(=O)[C@H]1CCCC[C@@H]1NC(=O)C[C@H](CCCCN)NC(=O)[C@H]1CCCC[C@@H]1NC(=O)[C@H]1CCCC[C@@H]1NC(=O)C[C@H](CCCCN)NC(=O)[C@H]1CCCC[C@@H]1NC(=O)[C@H]1CCCC[C@@H]1NC(=O)C[C@@H](N)Cc1ccc(O)cc1 [Peptide 14] | 24.0 ± 0.2 | – | 106 ± 37
14 | N=C(N)NCCC[C@@H](CC(N)=O)NC(=O)[C@H]1CCCC[C@@H]1NC(=O)[C@H]1CCCC[C@@H]1NC(=O)C[C@H](CCCNC(=N)N)NC(=O)[C@H]1CCCC[C@@H]1NC(=O)[C@H]1CCCC[C@@H]1NC(=O)C[C@H](CCCNC(=N)N)NC(=O)[C@H]1CCCC[C@@H]1NC(=O)[C@H]1CCCC[C@@H]1NC(=O)C[C@@H](N)Cc1ccc(O)cc1 [Peptide 15] | 24.6 ± 0.2 | – | 73 ± 40
15 | NCCCC[C@@H](CC(N)=O)NC(=O)C[C@H](Cc1ccccc1)NC(=O)[C@H]1CCCC[C@@H]1NC(=O)C[C@H](CCCCN)NC(=O)C[C@H](Cc1ccccc1)NC(=O)[C@H]1CCCC[C@@H]1NC(=O)C[C@H](CCCCN)NC(=O)C[C@H](Cc1ccccc1)NC(=O)[C@H]1CCCC[C@@H]1NC(=O)C[C@@H](N)Cc1ccc(O)cc1 [Peptide 16] | 27.4 ± 0.2 | – | 3 ± 1
